In the assay the target is T1, human PF4 (Homo sapiens, UniProt P02776).
T1 construct: PF4 is a 70 amino acid, lysine-rich 7.8 kDa platelet-specific protein; made in house; host or cells: Escherichia coli BL21DE3 pLysS (pT7-7) and/or Drosophila S2 cells
T1 sequence (P02776 32-101): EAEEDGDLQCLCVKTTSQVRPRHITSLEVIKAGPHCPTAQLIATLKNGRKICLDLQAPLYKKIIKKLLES
Briefly: Inhibition of PF4 tetramer formation (BS3 cross-linking, SDS-PAGE). It is filed as biochemical. Particulars: for inhibition at 5 µM: 5 μM inhibitor; for inhibition at 5 µM / inhibition at 10 µM / inhibition at 1 µM / inhibition at 3 µM: read-out: % inhibition of PF4 tetramer formation at single concentration of inhibitor; for inhibition at 10 µM: 10 μM inhibitor (column A); for IC50: read-out: IC50 of PF4 tetramer formation inhibition; for inhibition at 1 µM: 1 μM inhibitor; for inhibition at 3 µM: 3 μM inhibitor (column A). Put shortly: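 Recombinant human wild-type PF4 (E. coli-expressed, heparin-purified), 10 μg/ml in PBS, incubated with compound 15 min at 37° C or 60 min at room temperature, then cross-linked with 0.2 mM BS3 for 30 min at room temperature. Reducing 12% SDS-PAGE; bands quantified as % tetramer, trimer, dimer, monomer versus compound-free control.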

The IC50 is the concentration that inhibits the measured activity by half. On to `CC(C)(C)OC(=O)N1CCC[C@H]1CC(=O)C1C(=O)c2ccc(C(=O)c3ccc4c(c3)C(=O)C(C(=O)C[C@@H]3CCCN3C(=O)OC(C)(C)C)C4=O)cc2C1=O` (stereo in doubt) [Example 112, tert-butyl (2S)-2-{2-[5-(2-{2-[(2S)-1-[(tert-butoxy)carbonyl]pyrrolidin-2-yl]acetyl}-1,3-dioxo-2,3-dihydro-1H-indene-5-carbonyl)-1,3-dioxo-2,3-dihydro-1H-inden-2-yl]-2-oxoethyl}pyrrolidine-1-carboxylate], for which the inhibition at 5 µM is 84%, the inhibition at 10 µM turned out to be 89% and the IC50 was found to be 1.2 µM.

Regarding `O=C1c2ccc(Oc3ccc4c(c3)C(=O)C(C(=O)[C@@H]3C[C@H]3C(=O)O)C4=O)cc2C(=O)C1C(=O)[C@@H]1C[C@H]1C(=O)O` (stereo partly drawn) [Example 262, (1R,2R)-2-({5-[(2-{[(1R,2R)-2-carboxycyclopropyl](hydroxy)methylidene}-1,3-dioxo-2,3-dihydro-1H-inden-5-yl)oxy]-1,3-dioxo-2,3-dihydro-1H-inden-2-ylidene}(hydroxy)methyl)cyclopropane-1-carboxylic acid], the inhibition at 1 µM was found to be 49%, the inhibition at 3 µM stood at 67% and the concentration for half-maximal inhibition (IC50) amounted to 1.33 µM.

On to `CN(CC(=O)C1C(=O)c2ccc(C(=O)c3ccc4c(c3)C(=O)C(C(=O)CN(C)C(=O)OC(C)(C)C)C4=O)cc2C1=O)C(=O)OC(C)(C)C` (stereo not shown) [Example 264, tert-butyl N-(2-{5-[2-(2-{[(tert-butoxy)carbonyl](methyl)amino}acetyl)-1,3-dioxo-2,3-dihydro-1H-indene-5-carbonyl]-1,3-dioxo-2,3-dihydro-1H-inden-2-yl}-2-oxoethyl)-N-methylcarbamate], for which the inhibition at 1 µM worked out at 72%, the inhibition at 3 µM was found to be 75% and the IC50 stood at 9.83 µM.

For `COCCC(=O)C1C(=O)c2ccc(S(=O)(=O)c3ccc4c(c3)C(=O)C(C(=O)CCOC)C4=O)cc2C1=O` (stereo not shown) [Example 177, 2-(3-methoxypropanoyl)-5-{[2-(3-methoxypropanoyl)-1,3-dioxo-2,3-dihydro-1H-inden-5-yl]sulfonyl}-2,3-dihydro-1H-indene-1,3-dione], the inhibition at 5 µM amounted to 0% and the inhibition at 10 µM came out at 17%.

Regarding `CC(=O)C1C(=O)c2ccc(Oc3ccc4c(c3)C(=O)C(C(C)=O)C4=O)cc2C1=O` (stereo not shown) [Example 9, 5-(2-acetyl-2,3-dihydro-1,3-dioxo-1h-inden-6-yloxy)-2-acetyl-2,3-dihydro-1,3-dioxo-1h-indene], the half-inhibitory concentration (IC50) came out at 52 µM.

Regarding `COCCOCCN(CC(=O)C1C(=O)c2ccc(S(=O)(=O)c3ccc4c(c3)C(=O)C(C(=O)CN(CCOCCOC)C(=O)OC(C)(C)C)C4=O)cc2C1=O)C(=O)OC(C)(C)C` (stereo not shown) [Example 392, tert-butyl N-{2-[5-({2-[2-(11,11-dimethyl-9-oxo-2,5,10-trioxa-8-azadodecan-8-yl)acetyl]-1,3-dioxo-2,3-dihydro-1H-inden-5-yl}sulfonyl)-1,3-dioxo-2,3-dihydro-1H-inden-2-yl]-2-oxoethyl}-N-[2-(2-methoxyethoxy)ethyl]carbamate], the inhibition at 1 µM was 1% and the inhibition at 3 µM is 1%.

For the compound `CC(C)(C)OC(=O)N1CC2(CC(C(=O)C3C(=O)c4ccc(C(=O)c5ccc6c(c5)C(=O)C(C(=O)C5CC7(C5)CN(C(=O)OC(C)(C)C)C7)C6=O)cc4C3=O)C2)C1` (stereo not shown) [Example 131, tert-butyl 6-[5-(2-{2-[(tert-butoxy)carbonyl]-2-azaspiro[3.3]heptane-6-carbonyl}-1,3-dioxo-2,3-dihydro-1H-indene-5-carbonyl)-1,3-dioxo-2,3-dihydro-1H-indene-2-carbonyl]-2-azaspiro[3.3]heptane-2-carboxylate], the inhibition at 5 µM came out at 83%, the inhibition at 10 µM was determined as 88% and the IC50 came out at 4.1 µM.

With `N#CC1C(=O)c2ccc(C(=O)c3ccc4c(c3)C(=O)C(C#N)C4=O)cc2C1=O` (stereo not shown) [Example 250, 5-(2-cyano-1,3-dioxo-2,3-dihydro-1H-indene-5-carbonyl)-1,3-dioxo-2,3-dihydro-1H-indene-2-carbonitrile], the inhibition at 1 µM turned out to be 26%, the inhibition at 3 µM was 42% and the IC50 amounted to 3 µM.

Regarding `CC(C)(C)OC(=O)N1CCCC[C@H]1C(=O)C1C(=O)c2ccc(C(=O)c3ccc4c(c3)C(=O)C(C(=O)[C@@H]3CCCCN3C(=O)OC(C)(C)C)C4=O)cc2C1=O` (stereo partly drawn) [Example 127, tert-butyl (2S)-2-(5-{2-[(2S)-1-[(tert-butoxy)carbonyl]piperidine-2-carbonyl]-1,3-dioxo-2,3-dihydro-1H-indene-5-carbonyl}-1,3-dioxo-2,3-dihydro-1H-indene-2-carbonyl)piperidine-1-carboxylate], the 50% inhibitory concentration (IC50) amounted to 1 µM.

`O=C(c1ccc2c(c1)C(=O)C(C(=O)Nc1ccc(I)cc1)C2=O)c1ccc2c(c1)C(=O)C(C(=O)Nc1ccc(I)cc1)C2=O` (stereo not shown) [Example 105, N-(4-iodophenyl)-5-{2-[(4-iodophenyl)carbamoyl]-1,3-dioxo-2,3-dihydro-1H-indene-5-carbonyl}-1,3-dioxo-2,3-dihydro-1H-indene-2-carboxamide]: the 50% inhibitory concentration (IC50) stood at 2.8 µM.

With `CC[C@H](C)[C@H](NC(=O)C1C(=O)c2ccc(C(=O)c3ccc4c(c3)C(=O)C(C(=O)N[C@H](C(=O)OC)[C@@H](C)CC)C4=O)cc2C1=O)C(=O)OC` (stereo partly drawn) [Example 332, methyl (2S,3S)-2-{[5-(2-{[(2S,3S)-1-methoxy-3-methyl-1-oxopentan-2-yl]carbamoyl}-1,3-dioxo-2,3-dihydro-1H-indene-5-carbonyl)-1,3-dioxo-2,3-dihydro-1H-inden-2-yl]formamido}-3-methylpentanoate], the inhibition at 1 µM worked out at 5% and the inhibition at 3 µM was 13%.

As for `CSCC(=O)C1C(=O)c2ccc(C(=O)c3ccc4c(c3)C(=O)C(C(=O)CSC)C4=O)cc2C1=O` (stereo not shown) [Example 281, 2-[2-(methylsulfanyl)acetyl]-5-{2-[2-(methylsulfanyl)acetyl]-1,3-dioxo-2,3-dihydro-1H-indene-5-carbonyl}-2,3-dihydro-1H-indene-1,3-dione], the inhibition at 10 µM came out at 58% and the half-maximal inhibitory concentration (IC50) was found to be 10 µM.

With `CC(C)(C)OC(=O)N1CC[C@H](C(=O)C2C(=O)c3ccc(S(=O)(=O)c4ccc5c(c4)C(=O)C(C(=O)[C@H]4CCN(C(=O)OC(C)(C)C)C4)C5=O)cc3C2=O)C1` (stereo partly drawn) [Example 374, tert-butyl (3S)-3-[5-({2-[(3S)-1-[(tert-butoxy)carbonyl]pyrrolidine-3-carbonyl]-1,3-dioxo-2,3-dihydro-1H-inden-5-yl}sulfonyl)-1,3-dioxo-2,3-dihydro-1H-indene-2-carbonyl]pyrrolidine-1-carboxylate], the inhibition at 1 µM came out at 22% and the inhibition at 3 µM was found to be 49%.

Turning to `COCCOCCNC(=O)C1C(=O)c2ccc(S(=O)(=O)c3ccc4c(c3)C(=O)C(C(=O)NCCOCCOC)C4=O)cc2C1=O` (stereo not shown) [Example 295, N-[2-(2-methoxyethoxy)ethyl]-5-[(2-{[2-(2-methoxyethoxy)ethyl]carbamoyl}-1,3-dioxo-2,3-dihydro-1H-inden-5-yl)sulfonyl]-1,3-dioxo-2,3-dihydro-1H-indene-2-carboxamide], the inhibition at 1 µM is 29%, the inhibition at 3 µM came out at 100% and the IC50 was determined as 1.1 µM.

`CC(C)(C)OC(=O)N1CC[C@@H](C(=O)C2C(=O)c3ccc(C(=O)c4ccc5c(c4)C(=O)C(C(=O)[C@@H]4CCN(C(=O)OC(C)(C)C)C4)C5=O)cc3C2=O)C1` (stereo partly drawn) [Example 123, tert-butyl (3R)-3-(5-{2-[(3R)-1-[(tert-butoxy)carbonyl]pyrrolidine-3-carbonyl]-1,3-dioxo-2,3-dihydro-1H-indene-5-carbonyl}-1,3-dioxo-2,3-dihydro-1H-indene-2-carbonyl)pyrrolidine-1-carboxylate]: the inhibition at 5 µM was found to be 88%, the inhibition at 10 µM is 89% and the IC50 is 1.6 µM.

As for `COCCOCCC(=O)C1C(=O)c2ccc(S(=O)(=O)c3ccc4c(c3)C(=O)C(C(=O)CCOCCOC)C4=O)cc2C1=O` (stereo not shown) [Example 178, 2-[3-(2-methoxyethoxy)propanoyl]-5-({2-[3-(2-methoxyethoxy)propanoyl]-1,3-dioxo-2,3-dihydro-1H-inden-5-yl}sulfonyl)-2,3-dihydro-1H-indene-1,3-dione], the inhibition at 5 µM was 22% and the inhibition at 10 µM amounted to 75%.

As for `COCCNC(=O)C1C(=O)c2ccc(S(=O)(=O)c3ccc4c(c3)C(=O)C(C(=O)NCCOC)C4=O)cc2C1=O` (stereo not shown) [Example 73, 5,5′-sulfonylbis(n-(2-methoxyethyl)-1,3-dioxo-2,3-dihydro-1h-indene-2-carboxamide)], the inhibition at 5 µM came out at 0% and the inhibition at 10 µM was 0%.

Turning to `CCC(=O)C1C(=O)c2ccc(Oc3ccc4c(c3)C(=O)C(C(=O)CC)C4=O)cc2C1=O` (stereo not shown) [Example 323, 5-[(1,3-dioxo-2-propanoyl-2,3-dihydro-1H-inden-5-yl)oxy]-2-propanoyl-2,3-dihydro-1H-indene-1,3-dione], the inhibition at 1 µM came to 7% and the inhibition at 3 µM stood at 18%.

For `C[C@H]1C[C@@H](C(=O)C2C(=O)c3ccc(C(=O)c4ccc5c(c4)C(=O)C(C(=O)[C@@H]4C[C@H](C)CN4C(=O)OC(C)(C)C)C5=O)cc3C2=O)N(C(=O)OC(C)(C)C)C1` (stereo partly drawn) [Example 132, tert-butyl (2S,4S)-2-(5-{2-[(2S,4S)-1-[(tert-butoxy)carbonyl]-4-methylpyrrolidine-2-carbonyl]-1,3-dioxo-2,3-dihydro-1H-indene-5-carbonyl}-1,3-dioxo-2,3-dihydro-1H-indene-2-carbonyl)-4-methylpyrrolidine-1-carboxylate], the inhibition at 5 µM was 79%, the inhibition at 10 µM stood at 88% and the IC50 stood at 3.5 µM.

Values taken from US20250281424A1 (New York Blood Center, Inc, priority 2020, published 2025).
